# Measured values: patent US20140309295A1, “ANTIEPILEPTIC, HYPOCHOLESTEROLEMIC AND NEUROPROTECTIVE COMPOUND” (NEURON BIOPHARMA, S.A., priority 2009, published 2014)
# Peptide text beside a SMILES is read from it. * marks the point of attachment. Cbz = O=C(OCc1ccccc1)*; CH2F = FC*
# Columns and labels:
# [1] = test system: human neuroblastoma SK-N-MC cells; test: Inhibition of camptothecin-induced apoptosis by flow cytometry (sub-G1); type: cell-based; details: 50 μM Z-VAD-fmk; 50 μM camptothecin
# Method: The assay was performed on human neuroblastoma SK-N-MC cells in culture from the American Type Culture Collection (ATCC), in all cases strict rules of sterility were followed and the manipulation was performed in class II biological safety cabinets following European standard EN 12469. The cells were maintained in the following culture medium: Minimum Essential Medium Eagle (MEM) supplemented with 1 mM sodium pyruvate, 2 mM L-glutamine, 0.1 mM non-essential amino acids, 0.05 mg/ml gentamicin and 10% fetal bovine serum.
# The inhibition caused by compound NST0037 against apoptosis (programmed cell death) caused by treatment with camptothecin which inhibits the enzyme Topoisomerase I, which prevents DNA duplication and triggers apoptotic cell death, was analyzed. These cells, not exceeding 15 passages, were seeded on 6-well plates treated for adherent cells with a cell concentration of 8×10^5 cells/well and 7×10^5 cells/well for the assay with pretreatment; 2 wells of the plate were seeded for each condition of the assay.
# After 24 hours of cell incubation at 37° C. and 5% CO2, the cell treatments were performed with 2 ml of total volume for the following conditions: • Control: culture medium (medium) • Camptothecin: medium plus camptothecin 50 μM. • Camptothecin plus Z-VAD-fmk: medium plus 50 μM camptothecin plus 50 μM Z-VAD-fmk, as positive inhibition control. • Camptothecin plus NST0037: medium plus 50 μM camptothecin plus NST0037 at 10, 40 or 100 μM.
# In the assay with pretreatment, the cells were previously treated with 40 μM of NST0037, 100 μM of mevalonate or both together for 24 hours and then they were treated with 50 μM camptothecin, the rest of the procedure was similar to the assay without pretreatment.
# The cells were incubated (at 37° C. and 5% CO2) with these treatments for 6 hours, after which time they were collected along with their culture medium and centrifuged at 300×g for 5 minutes. The medium was removed, a washing was performed with PBS and the cells were fixed for 2 minutes with 500 μl of 70% ethanol at −20° C. Once fixed, they were centrifuged at 400×g for 5 minutes, washed with PBS and 0.05 mg/ml propidium iodide, diluted in cycling buffer (0.1% sodium citrate, 0.3% Nonidet P-40 and 0.02 mg/ml RNase) were added and they were incubated for 1 hour at 37° C. After this time they were analyzed by flow cytometry, comparing the fluorescence of propidium iodide against the amount of DNA. The percentage of apoptosis was measured on the sub-G1 region of each of the conditions.
# caspase 3/7 = test: Inhibition of camptothecin-induced activation of caspase 3/7 in SK-N-MC cells; type: cell-based, human; details: 50 μM Z-VAD-fmk; 50 μM CPT
# Method: The assay was performed on human neuroblastoma SK-N-MC cells in culture from the American Type Culture Collection (ATCC), in all cases strict rules of sterility were followed and the manipulation was performed in class II biological safety cabinets following European standard EN 12469. The cells were maintained in the following culture medium: Minimum Essential Medium Eagle (MEM) supplemented with 1 mM sodium pyruvate, 2 mM L-glutamine, 0.1 mM non-essential amino acids, 0.05 mg/ml gentamicin and 10% fetal bovine serum. The induction of apoptosis on the cells in culture was performed by means of incubation with camptothecin (CPT), which triggers cell apoptosis activation. The apoptosis was determined by means of the measurement of the activation of effector caspases, caspase 3 or caspase 7, for which a kit for the fluorometric detection of active caspase 3/7 (Apo-ONE® Homogeneous Caspase-3/7, Promega) was used. The active caspase 3 or 7 of the cells cause the rupture of a substrate, which leads to fluorescence emission, which is read by means of a fluorometer. The effect of the pretreatment of compound NST0037 at 10 and 40 μM on the activation of caspase 3/7 caused by 50 μM of camptothecin (CPT) in the SK-N-MC cells was thus analyzed. These cells, not exceeding 15 passages, were seeded on 96-well plates treated for adherent cells with a cell concentration of 5×10^4 cells/well, 3 wells of the plate were seeded for each condition of the assay. After 24 hours of cell incubation at 37° C. and 5% CO2, the pretreatment with NST0037 at 10 and 40 μM was performed. […] On the following day, fluorescence was measured (499/521 nm, […]).
# zebrafish embryo = test: Biosafety in zebrafish embryo (OECD C15, semi-static, 9 days); type: in vivo, Danio rerio
# Method: The fertilized eggs were obtained by natural mating of the zebrafish (Danio rerio, AB strain). A total of 8-10 pairs were used for each cross and a total of 200-250 eggs were generated on average per pair.
# To assure exposure in the earliest stages of development, the eggs were quickly transferred (a minimum of 50 per condition) to another Petri dish with solutions of the compounds to be tested. […] Each experiment was performed in triplicate.
# The studies were conducted in a total of 9 days post-fertilization, in which the treatment was renewed every day, thus conducting a semi-static assay.
# The results at the end of the experiment allowed collecting the percentage of healthy larvae which reach the end of the experiment, defined as the number of live larvae and without symptoms of external physiopathological anomalies (morphological and/or behavioral), this being a parameter determining the biosafety of a substance under study and is complementary to the survival rates and to the LD50.
# The anomalies recorded in the study are described below: • Intracranial thrombosis: a clot inside the blood vessel, in this case of any cerebral vessel. • Cardiac thrombosis: occurs in a cardiac vessel. • Cardiac edema (or hydrops): accumulation of fluid in the intercellular tissue space and also in the cavities of the organism. In the case of the heart, it causes the accumulation of fluid in the pericardial sac. • Malformation: a noticeable difference in the shape of the body or part of the body, or organ of the body (internal or external) compared with the average shape of the part in question.
# The cardiac rhythm of the zebrafish embryos-larva was determined by means of visual analysis in stereomicroscopy, determining the heartbeat with the aid of a manual counter for a period of one minute.
# zebrafish larvae = test: Acute toxicity assay in zebrafish larvae (24 hours); type: in vivo, Danio rerio; details: for Mortality (dead larvae/total): 1 day
# Method: To evaluate the biosafety of compound NST0037, its toxicological effects on the zebrafish larvae model were analyzed by means of determining the safety parameters of the OECD C15 protocol.
# The fertilized eggs were obtained by natural mating of the zebrafish (Danio rerio, AB strain). A total of 8-10 pairs were used for each cross and a total of 200-250 eggs were generated on average per pair. The eggs were collected immediately after spawning and were washed with dilution water (CaCl2.2H2O2 0.29 g/L, MgSO4.7H2O2 0.12 g/L, NaHCO3 0.065 g/L, KCl 0.006 g/L), the pH being adjusted to 7.8±0.2, in accordance with EC Regulation 440/2008, method C.1, and were deposited in a Petri dish.
# The embryos were developed normally until 96 hours post-fertilization in their growth medium. […] […]. Each experiment was performed in triplicate.
# The studies were conducted for 24 hours of treatment, thus performing an acute toxicity assay. […].
# After the time of exposure of the substances under study, the record of the mortality of the larvae was determined. […].
# […]. The percentage of healthy larvae was defined as the number of live larvae without symptoms of external physiopathological anomalies (morphological and/or behavioral), the latter being a parameter determining the biosafety of a substance under study and is complementary to the survival rates and to LD50. […].
# The anomalies recorded in the study are described below: • Thrombosis in the yolk sac: it is a clot inside a blood vessel, in this case of any vessel irrigating the yolk. • Cardiac thrombosis: occurs in a cardiac vessel. • Cardiac edema (or hydrops): accumulation of fluid in the intercellular tissue space and also in the cavities of the organism. In the case of the heart, it causes the accumulation of fluid in the pericardial sac.
# adult zebrafish = test: Lethality by constant exposure in water (4 days) in adult zebrafish (OECD 203); type: in vivo; details: for histopathology: ovary / Mortality (dead animals/total): 4 days
# Method: The object of this assay is to determine the acute lethal toxicity of a substance on freshwater fish. Acute toxicity is the distinguishable adverse effect induced in an organism as a result of the exposure to a given substance for a short time period (days).
# The deaths of the animals under study during the entire time of the assay were recorded as a toxicity parameter.
# To that end, the fish that survived the treatment were sacrificed at 4 days post-treatment (previously anesthetized) and the samples (whole fish) were included in paraffin. The hematoxylin-eosin staining was subsequently performed in order to conduct the histopathological studies, obtaining a minimum of 6 longitudinal sections per animal, for the purpose of collecting different study areas of the same organ. The following organs were studied: brain, kidney, pancreas, intestine, eye, gills, ovary, testicle, muscle and liver.
compound,measurement,setting,value
"COC(=O)C[C@H](NC(=O)[C@H](C)NC(=O)[C@@H](NC(=O)OCc1ccccc1)C(C)C)C(=O)CF [Z-VAD-fmk, reference compound] (Cbz-Val-Ala-Asp(OMe)-CH2F)",inhibition of apoptosis caused by camptothecin (positive inhibition control),[1],specifically inhibited the apoptosis caused by camptothecin
same,inhibition of activation of caspase 3/7 (inhibition control),caspase 3/7,completely inhibited the activation of caspase 3/7
"CCC(C)(C)C(=O)O[C@H]1C[C@@H](C)C=C2C=C[C@H](C)[C@H](CC[C@@H]3C[C@@H](O)CC(=O)O3)[C@H]21 [simvastatin, reference compound]",percentage of larvae with malformations or anomalous appearance,zebrafish embryo; 0.2 mg/L,significant percentage of anomalies or toxicological problems
same,survival rate of embryos-larvae,"zebrafish embryo; high dose (2 mg/L, FIG. 24)","more toxic, since the reduction of the survival rate started earlier in time"
same,reduction of the cardiac rhythm vs controls,"zebrafish embryo; increasing doses up to 2 mg/L, 72 hours post-treatment",statistically significant reduction with respect to the controls after the dose of 0.06
same,survival rate of embryos-larvae vs controls,zebrafish embryo; lower dose (FIG. 25: NST0037 0.2 mg/L),caused a significant reduction of the survival rate
same,percentage of larvae with toxicological symptomatology (anomalous appearance),zebrafish larvae; 24 hours exposure,induced a larger percentage of larvae with toxicological symptomatology than compound NST0037
same,Mortality (dead larvae/total),zebrafish larvae; Dose 10 mg/Kg,0/30
same,Mortality (dead larvae/total),zebrafish larvae; Dose 30 mg/Kg,0/30
same,Mortality (dead larvae/total),zebrafish larvae; Dose 100 mg/Kg,0/30
same,Mortality (dead larvae/total),zebrafish larvae; Dose 300 mg/Kg,0/30
same,Mortality (dead larvae/total),zebrafish larvae; Dose 1000 mg/Kg,0/30
same,percentage of healthy larvae,"zebrafish larvae; highest study dose (1000 mg/Kg), 24 hours",53.3±8.8%
same,histopathology: ovary,adult zebrafish; 30 mg/kg,also presented histopathological damage in the ovary
same,histopathology: ovary,adult zebrafish; 100 mg/Kg,presented ovarian damage
same,Mortality (dead animals/total),adult zebrafish; Dose 1 mg/kg,0/7
same,Mortality (dead animals/total),adult zebrafish; Dose 3.2 mg/kg,0/7
same,Mortality (dead animals/total),adult zebrafish; Dose 10 mg/kg,0/7
same,Mortality (dead animals/total),adult zebrafish; Dose 32 mg/kg,0/7
same,Mortality (dead animals/total),adult zebrafish; Dose 100 mg/kg,6/7
same,percentage of mortality,adult zebrafish; day 4 post-treatment (100 mg/kg group),86%
